Test results reported in patent publication US20080248511A1, “METHODS TO QUENCH LIGHT FROM OPTICAL REACTIONS” (priority 2007, published 2008).

What was measured:
Type in all cases: biochemical
firefly luciferase = firefly luciferase (Photinus pyralis, UniProt P08659); assay: Quaternary ammonium/phosphonium detergent screen, firefly luciferase (Example 5); conditions: final conc. 0.10% detergent; Tergitol NP-9 present; read-out: Retained Firefly Luciferase Luminescence (%)
Description: (§1) Each detergent was added at 0.2% to a reagent solution containing 50 mM Tricine pH 8.3, 3.5 mM MgSO4, 1 mM CDTA, 30 mM thiourea and 0.5% Tergitol NP-9. This solution or one not containing a detergent inhibitor was used to resuspend the Bright-Glo™ luciferin substrate (Promega).
(§2) The luciferase reactions were initiated by adding 100 μl of the firefly luciferase or Renilla luciferase enzyme solutions to 100 μl of reagent solution. The reactions were performed as described above. […] The detergent concentrations listed refer to the final concentration in the reaction.

Renilla luciferase [1] = biological target: T1, Renilla luciferase (Renilla reniformis, UniProt P27652); assay: Quaternary ammonium/phosphonium detergent screen, Renilla luciferase (Example 5); conditions: final conc. 0.10% detergent
T1 sequence (P27652 1-311): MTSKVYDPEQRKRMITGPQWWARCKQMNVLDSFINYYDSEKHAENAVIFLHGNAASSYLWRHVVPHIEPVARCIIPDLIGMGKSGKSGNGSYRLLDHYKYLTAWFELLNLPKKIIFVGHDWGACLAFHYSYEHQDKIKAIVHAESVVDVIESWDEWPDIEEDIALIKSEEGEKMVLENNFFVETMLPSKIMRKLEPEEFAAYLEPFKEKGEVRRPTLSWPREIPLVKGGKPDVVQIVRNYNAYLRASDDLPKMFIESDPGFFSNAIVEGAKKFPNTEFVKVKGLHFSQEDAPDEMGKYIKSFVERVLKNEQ
Description: as §1, §2

Renilla luciferase [2] = biological target: T1, Renilla luciferase; assay: as above; conditions: final conc. 0.03% detergent
[3] = Tergitol NP-9 present, read-out: Retained Renilla Luciferase Luminescence (%)

Sequence of firefly luciferase (P08659 whole entry): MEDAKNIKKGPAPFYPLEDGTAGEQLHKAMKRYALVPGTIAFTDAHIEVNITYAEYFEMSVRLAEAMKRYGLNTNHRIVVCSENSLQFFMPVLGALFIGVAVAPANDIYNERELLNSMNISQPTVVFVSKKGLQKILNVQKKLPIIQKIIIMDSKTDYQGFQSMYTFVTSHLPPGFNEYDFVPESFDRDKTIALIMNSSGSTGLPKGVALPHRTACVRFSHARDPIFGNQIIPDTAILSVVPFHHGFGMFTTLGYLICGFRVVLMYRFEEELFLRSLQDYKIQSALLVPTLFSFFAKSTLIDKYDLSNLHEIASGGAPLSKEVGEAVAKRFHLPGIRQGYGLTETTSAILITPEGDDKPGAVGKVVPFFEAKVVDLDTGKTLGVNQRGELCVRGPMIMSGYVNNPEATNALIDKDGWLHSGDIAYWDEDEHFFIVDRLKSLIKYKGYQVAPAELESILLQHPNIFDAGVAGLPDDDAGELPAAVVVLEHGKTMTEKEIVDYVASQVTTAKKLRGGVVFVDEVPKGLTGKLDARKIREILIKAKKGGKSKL

## CCCCCCCCCCCC[N+](C)(C)Cc1ccccc1.[Br-] [Benzyldimethyldodecylammonium bromide]
Firefly luciferase
  remaining activity at 0.1 %: 97%
Renilla luciferase [1]
  Selectivity Value: 48.5
Renilla luciferase [1]; [3]
  remaining activity at 0.1 %: 2%
Renilla luciferase [2]
  Selectivity Value: 4
Renilla luciferase [2]; [3]
  remaining activity at 0.03 %: 25%
